{"source": "patent US20240122829A1", "about": "“HAIR COMPOSITIONS, HAIR FORMULATIONS, PROCESSES OF PRODUCTION THEREOF, USES AND METHODS OF HAIR TREATMENT” (CHEMYUNION LTDA., priority 2021, published 2024)", "test": "Repairing effect: maximum tension of hair fibers after 3 discoloration processes, composition applied in a leave-in base", "conditions": "synergy test, after 3 discolorations; compositions at 5% in leave-in base; FIG. 11", "procedure": "To evaluate the effectiveness of the repairing effect, tests of maximum tension were performed after 2 or 3 discoloration processes in hair samples, composed by a naïve control group (without discoloration process), a discolored control group, a group discolored with application of the Benchmark 1 composition and a group containing the compositions of the present patent application after two or three discoloration processes, the composition being applied in a leave-in base containing 1% or 5% of the composition, this composition being the Base A or Base B, while Benchmark consisted of a ready-to-use cosmetic base (Benchmark 2 or Benchmark 3).\nThe leave-in base comprises: 3%-5% cetostearyl alcohol 30/70; 0.8-2.5% cetyl alcohol 0.8-2.5%; 0.05%-0.1% disodium EDTA; 0.8%-2.5% CCTA cetyl trimethyl ammonium chloride; 0.25%-1% preservatives and anti-microbial agents and water q.s. […]\nAfter the discoloration process, a standardized amount of Leave-in was applied to the strands with or without (control) 1% or 5% of the hair composition of the present patent application on damp hair, and this composition may be the Base A or Base B or the actives making up Base B, while the benchmark consisted of a ready-to-use cosmetic base (Benchmark 2 or Benchmark 3). […]"}
{"smiles": "N=C(N)NCCC[C@H](N)C(=O)O", "note": "[arginine]", "values": [{"measurement": "increase in resistance in relation to the discolored strand", "value": 3.9, "unit": "%"}]}
